Laboratory results: US20080033057A1, “Hexahydro-isoalpha acid based protein kinase modulation cancer treatment” (Metaproteomics, LLC, priority 2006, published 2008)
Marks after values point to notes of the source that are not given here.

Legend:
3T3-L1 adipocytes [1] = test: Adiponectin secretion from LPS-treated 3T3-L1 adipocytes; format: cell-based, murine; conditions: for induction of adiponectin secretion: any of the doses tested
3T3-L1 adipocytes [2] = test: Lipogenesis (Oil Red O / BODIPY) in 3T3-L1 adipocytes; format: cell-based, murine; conditions: hops compounds 10, 5, 4 or 2 μg/ml; spent hops 50 μg/ml
Description: Prior to experiments, cells were cultured in DMEM containing 10% FBS-HI added 50 units penicillin/ml and 50 μg streptomycin/ml, and maintained in log phase prior to experimental setup. Cells were grown in a 5% CO2 humidified incubator at 37° C. Components of the pre-confluent medium included (1) 10% FBS/DMEM containing 4.5 g glucose/L; (2) 50 U/ml penicillin; and (3) 50 μg/ml streptomycin. Growth medium was made by adding 50 ml of heat inactivated FBS and 5 ml of penicillin/streptomycin to 500 ml DMEM. This medium was stored at 4° C. Before use, the medium was warmed to 37° C. in a water bath.
T3-T1 cells were seeded at an initial density of 6×10^4 cells/cm^2 in 24-well plates. For two days, the cells were allowed grow to reach confluence. Following confluence, the cells were forced to differentiate into adipocytes by the addition of differentiation medium; this medium consisted of (1) 10% FBS/DMEM (high glucose); (2) 0.5 mM methylisobutylxanthine; (3) 0.5 μM dexamethasone and (4) 10 μg/ml insulin (MDI medium). After three days, the medium was changed to post-differentiation medium consisting of 10 μg/ml insulin in 10% FBS/DMEM.
AcE was partially dissolved in dimethyl sulfoxide (DMSO) and added to the culture medium to achieve a concentration of 50 μg/ml at Day 0 of differentiation and throughout the maturation phase (Days 6 or 7 (D6/7)). […]
Oil Red O Staining—Triglyceride content of D6/D7-differentiated 3T3-L1 cells was estimated with Oil Red O according to the method of Kasturi and Joshi [Kasturi, R. and Joshi, V. C. […] The resulting stained oil droplets were extracted from the cells with isopropanol and quantified by spectrophotometric analysis at 540 nm (MEL312e BIO-KINETICS READER, Bio-Tek Instruments, Winooski, Vt.).
Briefly, media were removed and cells were washed once with non-sterile PBS. […] After 15 min on an orbital shaker (DS-500, VWR Scientific Products, South Plainfield, N.J.) at ambient temperature, the cells were washed with 100 μL PBS followed by the addition of 100 μl PBS for reading for spectrofluorometric determination of BODIPY incorporation into the cells. […]

3T3-L1 adipocytes [3] = test: Adiponectin secretion from insulin-resistant 3T3-L1 adipocytes; format: cell-based, murine
Description: 3T3-L1 cells were seeded at an initial density of 1×10^4 cells/cm^2 in 96-well plates. For two days, the cells were allowed grow to reach confluence. Following confluence, the cells were forced to differentiate into adipocytes by the addition of differentiation medium; this medium consisted of (1) 10% FBS/DMEM (high glucose); (2) 0.5 mM methylisobutylxanthine; (3) 0.5 μM dexamethasone and (4) 10 μg/ml insulin (MDI medium). From Day 3 through Day 5, the medium was changed to post-differentiation medium consisting of 10 μg/ml insulin in 10% FBS/DMEM.
Briefly, on Day 6, cells were maintained in serum-free media containing 0.5% bovine serum albumin (BSA) for three hours and then treated with 1 μg insulin/ml plus solvent or insulin plus test material. […] Twenty-four hours later, the supernatant medium was sampled for adiponectin determination.
Adiponectin Assay—The adiponectin secreted into the medium was quantified using the Mouse Adiponectin Quantikine® Immunoassay kit with no modifications (R&D Systems, Minneapolis, Minn.).
Statistical Calculations and Interpretation—All assays were preformed in duplicate. […] Differences between the doses were determined using the student's t-test without correction for multiple comparisons; the nominal five percent probability of a type I error was selected. […]

3T3-L1 adipocytes [4] = test: Adiponectin secretion from TNFα-treated 3T3-L1 adipocytes; format: cell-based, murine
Description: For two days, the cells were allowed grow to reach confluence. […] (3) 0.5 μM dexamethasone and (4) 10 μg/ml insulin (MDI medium). […] Adiponectin Assay—The adiponectin secreted into the medium was quantified using the Mouse Adiponectin Quantikine® Immunoassay kit with no modifications (R&D Systems, Minneapolis, Minn.). […] Statistical Calculations and Interpretation—All assays were preformed in duplicate. […] Differences among the doses and test agents were determined using the Student's t-test without correction for multiple comparisons; the nominal five percent probability of a type I error was selected.

3T3-L1 adipocytes [5] = test: IL-6 secretion from LPS-treated 3T3-L1 adipocytes; format: cell-based, murine; conditions: with 100 ng LPS/ml, D5 3T3-L1 adipocytes
[6] = Non-fasting serum glucose and insulin in db/db diabetic mice; format: in vivo, mouse
Description: The Model—Male, C57BLKS/J m^+/m^+ Lepr^db (db/db) mice were used to assess the potential of the test materials to reduce fasting serum glucose or insulin concentrations.
Testing Procedure—Test substances were administered daily by gavage in 0.2% Tween-80. Serum was collected from the retroorbital sinus before the initial dose and ninety minutes after the third and final dose. Non-fasting serum glucose was determined enzymatically by the mutarotase/glucose oxidase method and serum insulin was determined by a mouse specific ELISA.
The Model—Male, C57BLKS/J m+/m+Leprdb (db/db) mice were used to assess the potential of the test materials to reduce fasting serum glucose or insulin concentrations.
Testing Procedure—Test substances were administered daily by gavage in 0.2% Tween-80. […] Non-fasting serum glucose was determined enzymatically by the mutarotase/glucose oxidase method and serum insulin was determined by a mouse specific ELISA.

[7] = tested on: A549 pulmonary epithelial cells; test: PGE2 biosynthesis in A549 cells stimulated by mite dust allergen; format: cell-based, human; conditions: 10 μg/ml, mite allergen 1000 ng/ml
Description: The filtrate was termed mite dust allergen and used to test for induction of PGE2 biosynthesis in A549 pulmonary epithelial cells.
Mite allergen was added to the culture medium to achieve a final concentration of 1000 ng/ml. Eighteen hours later, the media were sampled for PGE2 determination.

## CC(=O)Oc1ccccc1C(=O)O [Aspirin, aspirin]
3T3-L1 adipocytes [1]; LPS 100 ng/ml
  induction of adiponectin secretion: failed to induce adiponectin secretion

## CC(C)CCC1=C(O)C(C(=O)C(C)C)=C(O)C(CCC(C)C)(CCC(C)C)C1=O [Hexahydro colupulone, hexahydrocolupulone]
3T3-L1 adipocytes [2]
  adipogenic (lipogenic) response compared with controls: failed to elicit a lipogenic response greater than the solvent controls
3T3-L1 adipocytes [3]; four doses tested
  dose of maximal observed adiponectin secretion: 12.5 µg/mL

## CC(C)CCC1=C(O)C(C(=O)C(C)C)=C(O)C(CCC(C)C)(CCC(C)C)C1=O [Hexahydrocolupulone (HHCL)]
3T3-L1 adipocytes [3]; 50.0 μg/ml, ratio of adiponectin index to IL-6 index, insulin-resistant 3T3-L1
  Adiponectin/IL-6: 0.60#

## COc1ccc2c(c1)c(CC(=O)O)c(C)n2C(=O)c1ccc(Cl)cc1 [Indomethacin, indomethacin]
3T3-L1 adipocytes [4]; 0.5 ng TNFα/ml
  adiponectin secretion: dose-dependant decrease in adiponectin secretion
3T3-L1 adipocytes [4]; 10 ng TNFα/ml, Example 16
  increase of adiponectin secretion in the presence of TNFα: 94%
  optimal concentration for adiponectin secretion: 2.5 µg/mL
3T3-L1 adipocytes [4]; 10 ng TNFα/ml, […]
  Adiponectin/IL-6: 2.00*
3T3-L1 adipocytes [5]
  Concentration providing the maximum inhibition of IL-6 secretion: 5.00 µg/mL
3T3-L1 adipocytes [1]; LPS 100 ng/ml, […]
  maximum adiponectin stimulation: 9%
3T3-L1 adipocytes [1]; LPS-treated D5 3T3-L1 adipocytes
  Concentration of maximum stimulation of adiponectin secretion: 2.50 µg/mL

## CCc1ccc(CCOc2ccc(CC3SC(=O)NC3=O)cc2)nc1 (stereo not shown) [Pioglitazone, pioglitazone]
3T3-L1 adipocytes [4]; 10 ng TNFα/ml, Example 16
  optimal concentration for adiponectin secretion: 1.25 µg/mL
3T3-L1 adipocytes [4]; 10 ng TNFα/ml, Example 17
  Concentration of maximum adiponectin secretion over four doses: 1.25 µg/mL
3T3-L1 adipocytes [5]
  Concentration providing the maximum inhibition of IL-6 secretion: 5.00 µg/mL

## Cc1c(C)c2c(c(C)c1O)CCC(C)(COc1ccc(CC3SC(=O)NC3=O)cc1)O2 (stereo not shown) [Troglitazone, troglitazone]
3T3-L1 adipocytes [4]; 10 ng/ml TNFα
  maximum increase of adiponectin secretion from the TNFα solvent control: 51%
3T3-L1 adipocytes [5]
  Concentration providing the maximum inhibition of IL-6 secretion: 10.0 µg/mL

## COc1cc(O)c(CC=C(C)C)c(O)c1C(=O)/C=C/c1ccc(O)cc1 [Xanthohumol, xanthohumol]
3T3-L1 adipocytes [2]
  adipogenic (lipogenic) response compared with controls: comparable to indomethacin and troglitazone

## CN(C)C(=N)N=C(N)N [metformin]
[6]; three consecutive days
  serum glucose relative to the controls: decreased both serum glucose and insulin concentrations

## CN(CCOc1ccc(CC2SC(=O)NC2=O)cc1)c1ccccn1 (stereo not shown) [rosiglitazone]
[6]; db/db mice, non-fasting serum, 1.0 mg/kg-day by gavage, three days
  Glucose [% Pretreatment]: 83.0# % Pretreatment

## O=C(O)c1ccccc1O [salicylic acid]
3T3-L1 adipocytes [1]; LPS 100 ng/ml
  induction of adiponectin secretion: failed to induce adiponectin secretion

## Beta acids
[7]
  Percent PGE2 Inhibition: 83%
3T3-L1 adipocytes [2]
  adipogenic (lipogenic) response compared with controls: comparable to indomethacin and troglitazone
